# Patent publication US20140051756A1, “METHOD FOR PREVENTING OR TREATING ARRHYTHMIA, METHOD FOR PREVENTING OR TREATING ATRIAL FIBRILLATION, MODEL OF SUSTAINED ATRIAL FIBRILLATION, METHOD FOR PRODUCING THE MODEL, AND METHOD FOR SCREENING FOR ATRIAL FIBRILLATION INHIBITOR” (Toho University, priority 2011, published 2014)
# Like-named read-outs stand apart in the source and are kept apart here.
# What was measured:
# [1] = system: model of sustained atrial fibrillation; assay: Test Example 1: screening for atrial fibrillation inhibitor, intravenous injection, Holter electrocardiogram; conditions: for Frequency of Atrial Fibrillation Termination: X/Y individuals terminated
# [2] = system: normal beagle dogs; conditions: dog, in vivo, iv
# [3] = system: model of sustained atrial fibrillation; assay: Test Example 2: study of dose and combined use of oseltamivir, with 24 hour follow-up for recurrence; assay type: in vivo, beagle dog; conditions: for Frequency of Atrial Fibrillation Recurrence: 24 hours follow-up after termination
# From the text: Oseltamivir (oseltamivir phosphate, trade name: TAMIFLU (registered trademark), product of CHUGAI PHARMACEUTICAL CO., LTD.; phosphate of the compound represented by Structural Formula (I))) and/or pilsicainide (pilsicainide hydrochloride, trade name: […] (registered trademark), product of DAIICHI SANKYO COMPANY, LIMITED), which had been diluted with saline to doses as described in Table 2-1, was intravenously injected to the model of sustained atrial fibrillation produced in Production Example 1 in doses described in Table 2-1 for 10 min.
# During from before the administration to after the administration, the electrocardiogram was monitored in the same manner as in Test Example 1, and the frequency of atrial fibrillation termination and the defibrillation rate were determined in the same manner as in Test Example 1. For individuals in which atrial fibrillation was terminated, an electrocardiographic follow-up was performed for 24 hours after atrial fibrillation was terminated to thereby determine whether atrial fibrillation recurred.
# [4] = system: normal beagle dogs; assay: Test Example 3: study of effect on QT prolongation (ECG, MAP90, ERP)
# [5] = 3 mg/kg intravenous over 10 min
# [6] = high dose 30 mg/kg intravenous over 10 min
# [7] = low dose 3 mg/kg intravenous over 10 min
# [8] = 30 mg/kg intravenous over 10 min
compound,measurement,setting,value
"CCN(CC)CCCN(c1ccccc1)C1Cc2ccccc2C1 [Aprindine, aprindine]",Defibrillation Rate,[1]; [5],0%
same,Frequency of Atrial Fibrillation Termination,[1]; [5],0/6
"c1ccc(C2(c3ccccc3)CC2C2=NCCN2)cc1 (centres unmarked) [Cibenzoline, cibenzoline]",Defibrillation Rate,[1]; [5],33.3%
same,Frequency of Atrial Fibrillation Termination,[1]; [5],2/6
"CC(C)N(CCC(C(N)=O)(c1ccccc1)c1ccccn1)C(C)C (centres unmarked) [Disopyramide, disopyramide]","MAP90 (CL300) versus MAP90 (CL400), MAP prolongation pattern",[2],dangerous MAP prolongation pattern
same,"prolongation of QT and QTc, QT prolongation pattern",[2],"longer prolongations of QT and QTc than that of the oseltamivir-administered group, and a dangerous QT prolongation pattern"
same,Frequency of Atrial Fibrillation Termination,[1]; [5],1/6
same,death of the model animal after administration,"[1]; 3 mg/kg intravenous, 1 individual, FIG. 6A",confirmed to be dead
same,termination of atrial fibrillation on electrocardiogram,"[1]; 3 mg/kg intravenous, 1 individual, FIGS. 6A to 6C",could not terminate atrial fibrillation
"CCOC(=O)C1=C[C@@H](OC(CC)CC)[C@H](NC(C)=O)[C@@H](N)C1 [Oseltamivir, oseltamivir]",Defibrillation Rate,[3]; [6],100%
same,Frequency of Atrial Fibrillation Termination,[3]; [6],5/5
same,Frequency of Atrial Fibrillation Recurrence,[3]; [6],2/5
same,Defibrillation Rate,[3]; [7],25%
same,Frequency of Atrial Fibrillation Termination,[3]; [7],1/4
same,Frequency of Atrial Fibrillation Recurrence,[3]; [7],0/1
same,"prolongation of QT and QTc, QT prolongation pattern","[4]; anesthetized normal dogs, intravenous doses increased stepwise every 30 min (Table 3), FIGS. 7 to 10",short prolongations of QT and QTc and a safe QT prolongation pattern
same,prolongation of P wave width on the electrocardiogram (index of inhibitory effect on Na channels in the atrial muscle),"[4]; sinus rhythm, 0.3, 3, 30 mg/kg intravenous stepwise, FIG. 7",longer prolongation of P wave
same,"MAP90 (CL300) versus MAP90 (CL400), MAP prolongation pattern","[4]; ventricular pacing at cycle length 300 msec (200 bpm) and 400 msec (150 bpm), stepwise intravenous doses (Table 3)",safe MAP prolongation pattern
same,Defibrillation Rate,[1]; [8],91.7%
same,adverse effect on the ventricle,[1]; [8],does not adversely affect the ventricle
same,Frequency of Atrial Fibrillation Termination,[1]; [8],11/12
same,Defibrillation Rate,"[1]; 30 mg/kg intravenous over 10 min, listed as oseltamivir",very high
"Cc1cccc(C)c1NC(=O)CC12CCCN1CCC2 [Pilsicainide, pilsicainide]","MAP90 (CL300) versus MAP90 (CL400), MAP prolongation pattern",[2],dangerous MAP prolongation pattern
same,"prolongation of QT and QTc, QT prolongation pattern",[2],"longer prolongations of QT and QTc than that of the oseltamivir-administered group, and a dangerous QT prolongation pattern"
same,Defibrillation Rate,[1]; [5],33.3%
same,Frequency of Atrial Fibrillation Termination,[1]; [5],2/6
